Laboratory results published in patent US7557123B2, “Heterocyclic compound and medicinal use thereof” (Kyoto Pharmaceutical Industries, Ltd., priority 2001, dated 2009).

Experiments:
male KK-A^y mice = assay: Hypoglycemic and hypolipidemic activity in spontaneously diabetic KK-Ay mice; type: in vivo; conditions: 10 mg/kg/day orally for 4 consecutive days, plasma 24 hours after final administration, non-fasting, vs control group
Experimental: Blood was drawn under a non-fasting state from the tail vein of male KK-A^y mice, and the glucose and triglyceride levels of the plasma were measured using commercially available assay kits (glucose CII-test WAKO and triglyceride G-test WAKO, Wako Pure Chemical Industries, Ltd.). The mice were grouped (5 mice per group) into a control group and an administration group, such that the mean and standard deviation of the body weight and the plasma glucose and plasma triglyceride levels in each group were nearly the same. The test compounds (compounds of Examples 1, 2, 4, 8, 20, 22, 24, 27, 30, 33, 36, 37, 40, 45, 47, 52, 56, 58 and 64) were suspended in 5% gum arabic solution and administered (10 mg/kg/day) orally to the administration group for 4 consecutive days. The 5% gumarabic solution was orally administered to the control group. Blood was drawn under a non-fasting state from the tail vein 24 hours after the final administration and the glucose and triglyceride levels of the plasma were measured. The decrease in the plasma glucose and triglyceride levels was calculated from the following formula. Decrease (%)=[(mean of control group−mean of test compound administration group)/mean of control group]×100 Results

male db/db mice = assay: Hypoglycemic and hypolipidemic activity in db/db mice; type: in vivo; conditions: 3 mg/kg/day orally for 2 consecutive weeks, plasma 24 hours after final administration, non-fasting, vs control group
Experimental: Using db/db mice genetically showing high plasma glucose, hypertriglyceridemia, insulin resistance and obesity, the pharmacological activity of the test compounds of Examples 1, 2 and 20 was examined.
Blood was drawn under a non-fasting state from the tail vein of male db/db mice, the glucose level and triglyceride level of the plasma were measured using commercially available assay kits (glucose CII-test WAKO and triglyceride G-test WAKO, Wako Pure Chemical Industries, Ltd.). The mice were grouped (6 mice per group) into a control group and test compound (compounds of Examples 1, 2 and 20) administration group (3 mg/kg/day), such that the mean and standard deviation of the body weight and the plasma glucose and plasma triglyceride levels in each group were nearly the same. The test compound was suspended in 0.5% methylcellulose solution and administered orally for 2 consecutive weeks from the next day. The 0.5% methylcellulose solution was orally administered to the control group. Blood was drawn under a non-fasting state from the tail vein 24 hours after the final administration and the glucose and triglyceride levels of the plasma were measured. The decrease in the plasma glucose and triglyceride levels was calculated from the following formula. Decrease (%)=[(mean of control group−mean of test compound administration group)/mean of control group]×100 Results

[1] = Solubility of the compound in water (buffer pH 7.0); type: physicochemical
Experimental: The pulverized test compound (compounds of Examples 2, 20, 22, 24, 27, 30, 40 or 65, 25 mg) was added to a buffer (1.0 ml, pH 7.0) and the mixture was shaken at 25° C. for 1 hr and passed through a membrane filter. The concentration of the test compound in the filtrate was measured by high performance liquid chromatography.

[2] = 25 mg in 1.0 ml buffer pH 7.0, shaken at 25° C. for 1 hr, filtrate by HPLC

Structure (SMILES)	Decrease (%) in glucose level (male KK-A^y mice) [%]	Decrease (%) in triglyceride level (male KK-A^y mice) [%]	further results
CCC/C=C/c1nc(CCOc2ccc3c(c2)CN(C(=O)C=CCCCC)[C@H](C(=O)[O-])C3)c(C)o1.[Na+] (stereo in doubt) [Example 1, sodium 2-(2-heptenoyl)-7-[2-(5-methyl-2-(trans-1-penten-1-yl)oxazol-4-yl)ethoxy]-1,2,3,4-tetrahydroisoquinoline-(3S)-carboxylate]	46.1	45.3	Decrease (%) in glucose level (male db/db mice): 21.3%; Decrease (%) in triglyceride level (male db/db mice): 62.7%
CCCC#CC(=O)N1Cc2cc(OCCc3nc(/C=C/CCC)oc3C)ccc2C[C@H]1C(=O)O (stereo in doubt) [Example 4, 2-(2-hexynoyl)-7-[2-(5-methyl-2-(trans-1-penten-1-yl)oxazol-4-yl)ethoxy]-1,2,3,4-tetrahydroisoquinoline-(3S)-carboxylic acid]	40.3	40.5	
CC(C)(C)N.CC=CC=CC(=O)N1Cc2cc(OCCc3nc(/C=C/C4CCCC4)oc3C)ccc2C[C@H]1C(=O)O (stereo in doubt) [Example 22, tert-butylamine 7-{2-[2-(trans-2-cyclopentylvinyl)-5-methyloxazol-4-yl]ethoxy}-2-(2,4-hexadienoyl)-1,2,3,4-tetrahydroisoquinoline-(3S)-carboxylate]	45.3	51.4	Solubility (mg/ml) [1, 2]: 25 or above mg/ml
CC(C)(C)N.CCCCC=CC(=O)N1Cc2cc(OCCc3nc(/C=C/CC(C)C)oc3C)ccc2C[C@H]1C(=O)O (stereo in doubt) [Example 24, tert-butylamine-2-(2-heptenoyl)-7-{2-[5-methyl-2-(4-methyl-trans-1-penten-1-yl)oxazol-4-yl]ethoxy}-1,2,3,4-tetrahydroisoquinoline-(3S)-carboxylate]	52.8	50.7	Solubility ([1]; pH 7): 18.7 mg/mL
CC(C)(C)N.CC=CC=CC(=O)N1Cc2cc(OCCc3nc(/C=C/CCCC)oc3C)ccc2C[C@H]1C(=O)O (stereo in doubt) [Example 27, tert-butylamine 2-(2,4-hexadienoyl)-7-{2-[2-(trans-1-hexen-1-yl)-5-methyloxazol-4-yl]ethoxy}-1,2,3,4-tetrahydroisoquinoline-(3S)-carboxylate]	53.4	36.5	Solubility (mg/ml) [1, 2]: 25 or above mg/ml
CC(C)(C)N.CC=CC=CC(=O)N1Cc2cc(OCCc3nc(/C=C/CCC(C)C)oc3C)ccc2C[C@H]1C(=O)O (stereo in doubt) [Example 30, tert-butylamine 2-(2,4-hexadienoyl)-7-{2-[5-methyl-2-(5-methyl-trans-1-hexen-1-yl)oxazol-4-yl]ethoxy}-1,2,3,4-tetrahydroisoquinoline-(3S)-carboxylate]	55.4	57.0	Solubility [1, 2]: 17.3 mg/mL
CC(C)(C)N.CC=CC=CC(=O)N1Cc2cc(OCCc3nc(/C(C)=C/CCC)oc3C)ccc2C[C@H]1C(=O)O (stereo in doubt) [Example 33, tert-butylamine 2-(2,4-hexadienoyl)-7-(2-[5-methyl-2-(1-methyl-trans-1-penten-1-yl)oxazol-4-yl]ethoxy}-1,2,3,4-tetrahydroisoquinoline-(3S)-carboxylate]	58.2	68.3	
CC(C)(C)N.CC=CC=CC(=O)N1Cc2cc(OCCc3nc(/C(C)=C/CC)oc3C)ccc2C[C@H]1C(=O)O (stereo in doubt) [Example 36, tert-butylamine 2-(2,4-hexadienoyl)-7-{2-[5-methyl-2-(1-methyl-trans-1-buten-1-yl)oxazol-4-yl]ethoxy}-1,2,3,4-tetrahydroisoquinoline-(3S)-carboxylate]	39.8	27.5	
CCC/C=C/c1nc(CCOc2ccc3c(c2)CN(C(=O)C(F)(F)C(F)(F)F)[C@H](C(=O)O)C3)c(C)o1 (stereo in doubt) [Example 37]	53.2	50.1	
CC(C)(C)N.CC=CC=CC(=O)N1Cc2cc(OCCc3nc(/C=C/C4CCCCC4)oc3C)ccc2C[C@H]1C(=O)O (stereo in doubt) [Example 40]	54.3	37.0	Solubility [1, 2]: 18.7 mg/mL
CC(C)(C)N.CC=CC=CC(=O)N1Cc2cc(OCCc3nc(/C=C/CC(C)(C)C)oc3C)ccc2C[C@H]1C(=O)O (stereo in doubt) [Example 45, tert-butylamine 7-{2-[2-(4,4-dimethyl-trans-1-penten-1-yl)-5-methyloxazol-4-yl]ethoxy)-2-(2,4-hexadienoyl)-1,2,3,4-tetrahydroisoquinoline-(3S)-carboxylate]	38.7	32.6	
CC(C)(C)N.CCC/C=C/c1nc(CCOc2ccc3c(c2)CN(C(=O)C=CCC(C)C)[C@H](C(=O)O)C3)c(C)o1 (stereo in doubt) [Example 47, tert-butylamine 2-(5-methyl-2-hexenoyl)-7-(2-[5-methyl-2-(trans-1-penten-1-yl)oxazol-4-yl]ethoxy}-1,2,3,4-tetrahydroisoquinoline-(3S)-carboxylate]	29.9	10.9	
CC(C)(C)N.CCC/C=C/c1nc(CCOc2ccc3c(c2)CN(C(=O)C(F)(F)CC)[C@H](C(=O)O)C3)c(C)o1 (stereo in doubt) [Example 52, tert-butylamine 2-(2,2-difluorobutyryl)-7-{2-[5-methyl-2-(trans-1-penten-1-yl)oxazol-4-yl]ethoxy}-1,2,3,4-tetrahydroisoquinoline-(3S)-carboxylate]	26.6	19.1	
CC(C)(C)N.CC=CC=CC(=O)N1Cc2cc(OCCc3nc(/C=C/C4(C)CCCCC4)oc3C)ccc2C[C@H]1C(=O)O (stereo in doubt) [Example 56]	21.0	11.9	
C=CCCCN1Cc2cc(OCCc3nc(/C=C/CC(C)C)oc3C)ccc2C[C@H]1C(=O)O (stereo in doubt) [Example 58, 7-{2-[5-methyl-2-(4-methyl-trans-1-penten-1-yl)oxazol-4-yl]ethoxy}-2-(4-pentenyl)-1,2,3,4-tetrahydroisoquinoline-(3S)-carboxylic acid]	25.1	23.2	
C=CCCN1Cc2cc(OCCc3nc(/C=C/CC(C)C)oc3C)ccc2C[C@H]1C(=O)O (stereo in doubt) [Example 64, 2-(3-butenyl)-7-{2-[5-methyl-2-(4-methyl-trans-1-penten-1-yl)oxazol-4-yl]ethoxy}-1,2,3,4-tetrahydroisoquinoline-(3S)-carboxylic acid]	29.4	25.1	
CC(C)(C)N.CC=CC=CC(=O)N1Cc2cc(OCCc3nc(/C=C/COC)oc3C)ccc2C[C@H]1C(=O)O (stereo in doubt) [Example 65]			Solubility [1, 2]: 20.5 mg/mL
Cc1oc(C=Cc2ccccc2)nc1CCOc1ccc2c(c1)CN(C(=O)C(F)(F)C(F)(F)F)[C@H](C(=O)O)C2 [Example 8, 7-[2-(5-methyl-2-styryloxazol-4-yl)ethoxy]-2-pentafluoropropionyl-1,2,3,4-tetrahydroisoquinoline-(3S)-carboxylic acid]	57.2	71.1	
